From patent publication US20240358678A1, “METHODS AND COMPOSITIONS FOR ENHANCING CHEMOTHERAPEUTIC DRUG UPTAKE INTO BRAIN TUMORS” (Brown University, priority 2023, published 2024)
Entries after “also recorded” stand apart in the source; their conditions may differ.

How the values were obtained:
HBMEC cells = assay: Real-time PCR for CDH5 in HBMEC cells; type: cell-based, human; conditions: 1 μM BIA, up to 48 hours
G34 GBM cells = assay: Real-time PCR in G34-PCDH neurosphere GBM cells; type: cell-based, human; conditions: BIA 2 μM, 24 hours
Procedure: Real-time PCR: Total RNA from GBM and HCMEC/D3 cells was obtained and processed as indicated above. For cDNA generation, we used 1 μg of RNA and processed with the iScript™ cDNA synthesis kit (BioRad), following the protocol indicated by the provider. All primers were designed using NCBI Primer-Blast tool. Detailed information on primer sequences can be found in FIG. 25 (Supplementary Table 3). Gene expression levels were quantified using PowerUp SYBR Green Master Mix (Applied Biosciences) on QuantStudio 6 Pro System (Applied Biosciences), normalized by housekeeping gene GAPDH expression and represented as relative expression using comparative ΔΔCT method.

HCMEC/D3 cells [1] = assay: Human phospho-kinase array of HCMEC/D3 cells; type: cell-based
Procedure: Phospho-kinase array: HCMEC/D3 cells were plated at a density of 1 million cells and treated with either 1 μM BIA or vehicle DMSO for 24 hr. Cell lysates were collected with manufacturer provided Lysis Buffer 6 supplemented with 10 μg/mL Aprotinin (Tocris), 10 μg/mL Leupeptin hemisulfate (Tocris) and 10 μg/mL Pepstatin A (Tocris) for protein preservation. 50 μg of lysate from each sample were loaded into each membrane. All experiment procedures were performed using the Proteome Profiler Human Phospho-Kinase Array Kit (R&D Systems) following manufacturer's protocol.

HCMEC/D3 cells [2] = assay: Secretome (Luminex cytokine) quantification; type: cell-based, human; conditions: BIA 48 hours
Procedure: Secretome quantification: For cytokine analysis of brain endothelial cells after BIA exposure, HCMEC/D3 cells were plated at a density of 500,000 cells/well in a 6-well plate. Cells were treated with indicated doses of BIA or DMSO for 48 hours. Then, 1 mL of media was collected and processed for cytokine quantification in a Luminex platform (Thermo Fischer Scientific) following the provider's instructions.

G30 tumor-bearing mice = assay: Sodium fluorescein (NaF) BTB permeability study; type: in vivo
Procedure: In vivo studies: For intra-cranial tumor implantation, GBM neuro-spheres were grown to 70% confluency before dissociated into single cell on the day of surgery. 50,000 cells were resuspended in 3 μl of sterile PBS and injected intracranially into the striatum (2 mm right hemisphere, 1 mm frontal, 3 mm depth from bregma) of mice under anesthesia and stereo-tactically fixed. Tumors were left to grow for approximately 2-3 weeks, depending the cell line. Animals were randomized to treatment groups. BIA injections consisted of 20 mg/kg (i.p.), except if indicated otherwise. PPRX-1701 was administered at 20 mg/kg (i.v.) via lateral tail-vein. Cisplatin injections were performed at 5 mg/kg (maximum tolerated dose, i.p.). […]
Sodium fluorescein (NaF) BTB permeability studies: NaF was administered to G30 tumor-bearing mice intravenously (i.v.) via lateral tail vein at 20 mg/kg. Then, 30 minutes after administration when peak fluorescence is reached in the brain, mice were euthanized for immediate brain tissue harvest. […] Quantification of pixel intensities from acquired images was performed in ImageJ. Tissue samples were then homogenized in 1 mL of 60% trichloroacetic acid in PBS and measured at 488 nm in a Molecular Devices SpectraMax M2 plate reader.

[3] = system: G9-PCDH and G34-PCDH cells; assay: Platinum levels in GBM cells treated with BIA and cisplatin; type: cell-based, human; conditions: 2 μM BIA and cisplatin simultaneously
HCMEC/D3 cells [4] = assay: Platinum levels in brain endothelial cells treated with BIA and cisplatin; type: cell-based, human; conditions: 2 μM BIA and cisplatin simultaneously
[5] = system: G9-PCDH and G34-PCDH xenograft murine models; assay: Immunofluorescence of brain tissue from GBM xenograft models; type: in vivo, mice; conditions: 24 hours after 20 mg/kg BIA
Procedure: For mouse brain tissue staining, brains were collected from CO2 euthanized and PBS perfused tumor-bearing mice, and fixed in 10% formalin for 72 hours on rotation in the cold. Then, brains were transferred to 30% sucrose for 3 days at 4 degrees Celsius under rotation. Before cryo-sectioning, brains were frozen at −80 degree Celsius for more than 30 minutes, embedded in Optimal Cutting Temperature (OCT) compound (Fisher) and transferred to −27 degrees Celsius to a cryostat (Leica CM1950) for sectioning (20 μm thickness). Sections were placed on slides and staining followed as indicated above. All pictures were taken using a LSM 880 Zeiss confocal microscope.
In vivo studies: For intra-cranial tumor implantation, GBM neuro-spheres were grown to 70% confluency before dissociated into single cell on the day of surgery. 50,000 cells were resuspended in 3 μl of sterile PBS and injected intracranially into the striatum (2 mm right hemisphere, 1 mm frontal, 3 mm depth from bregma) of mice under anesthesia and stereo-tactically fixed. Tumors were left to grow for approximately 2-3 weeks, depending the cell line. Animals were randomized to treatment groups. BIA injections consisted of 20 mg/kg (i.p.), except if indicated otherwise. PPRX-1701 was administered at 20 mg/kg (i.v.) via lateral tail-vein. Cisplatin injections were performed at 5 mg/kg (maximum tolerated dose, i.p.). All GBM tumor murine studies involved continuous condition and weight assessments, with endpoint considered when 20% of weight loss and/or moderate-to-high grimace scale and neurological symptoms were observed.

[6] = system: hCMEC/D3 brain microvascular endothelial cells; assay: ECIS electrical impedance of endothelial monolayers (Example 1); type: cell-based, human; conditions: BiA 1 μM, p<0.05
Procedure: Electrical Impedance Measurements: Human Brain microvascular endothelial cell (purchased from Sciencell) monolayers were plated on special culture chambers on top of opposing circular gold electrodes (Applied Biophysics Inc). Impedance was automatically recorded during cell monolayer formation.
The in vitro effects of indirubin on endothelial monolayer permeability were also assess using Electric Cell-substrate Impedance Sensing (ECIS®) to provide a real-time, label-free, impedance-based study of cell behaviors in tissue culture. BiA (1 μM) was added to endothelial monolayers in an ECIS impedance measurement culture system (Applied Physics).

G9 tumors = assay: Platinum uptake by ICP-MS in G9 tumor-bearing mice (Example 2); type: in vivo; conditions: BiA 20 mg/kg tail vein, cisplatin 5 mg/kg 24 hours later
Procedure: Inductively Coupled Plasma-Mass Spectrometry (ICP-MS): For platinum quantitation, ICP-MS was performed in an Agilent 7900 ICP mass spectrometer and controlled using the ICP-MS MassHunter software. Machine calibration was performed using a tuning solution (Agilent), containing 1 ng/mL (1 ppb) of Li, Co, Y, Ce and Ti trace-metals. In each experiment, the desired internal standard was added to each sample and standard solution. Standard curves were prepared with potassium tetrachloroplatinate (II) (Thermo Fisher) by generating dilutions of 0.1, 1, 10, 50, 100 and 1000 parts per billion (ppb). Isotopes selected for platinum detection were Pt^195. Performance reports were registered daily for calibration and accuracy records.
For the assessment of the effects of indirubin on intratumoral accumulation of platinum, G9 tumors were implanted intracranially according to the protocols described above. Cisplatin (5 mg/kg) was injected via the tail vein 24 hours post-BIA injection (20 mg/kg vial tail vein), and accumulation measured after a further 5 hours.

murine GBM models = conditions: cited from earlier work

With `CC(=O)ON=C1C(=C2C(=O)Nc3cc(Br)ccc32)Nc2ccccc21` [BIA, 6-bromoindirubin acetoxime] the “CDH5 expression at the transcriptional level” value (HBMEC cells) was “decreased expression”, the CDH5 expression (G34 GBM cells) was “reduced the expression” and the “WNT7B and S1PR3 expression” value (G34 GBM cells) was “diminishment”. The “activity of endothelial nitric oxide synthase (eNOS) and the p38a/CREB axis” value (HCMEC/D3 cells [1]) was “decreased activity”, the “phosphorylation of MAPK family (p38a, JNK1, MSK1/2, ERK1/2), SRC family (SRC, YES, FGR) and transcription factors (CREB, STAT1, STAT2, STAT5a/b, c-JUN)” value (HCMEC/D3 cells [1]; 1 μM BIA, 24 hours) was “decrease of activating phosphorylation” and the “phosphorylation of STAT3 and p70 S6 kinase” value (HCMEC/D3 cells [1]; 1 μM BIA, 24 hours) was “phosphorylation of STAT3 at S727 and Y705”. For the same molecule, the CCL2 secretion (HCMEC/D3 cells [2]) was “significant downregulation”, the “cytokine secretion profile (TNF-α, IFNg, IL-17A, IL6, IL-1b, prolactin, CCL8, CCL4)” value (HCMEC/D3 cells [2]) was “pro-inflammatory secretion profile” and the “NaF fluorescent signal in healthy brain” value (G30 tumor-bearing mice; after BIA administration) was “not in healthy brain”. The “NaF fluorescent signal in the tumor” value (G30 tumor-bearing mice; after BIA administration vs untreated controls) was “significant accumulation in the tumor”, the “cellular drug (platinum) accumulation due to BIA addition” value [3] was “did not observe any advantage in drug accumulation” and the “cellular drug (platinum) accumulation due to BIA addition” value (HCMEC/D3 cells [4]) was “did not observe any advantage in drug accumulation”. For the same molecule, the “CDH5 expression in contra-lateral healthy brain regions” value [5] was “did not observe significant changes in expression of CDH5”, the “CDH5 in CD31+ endothelial cells and CDH5+ tumor cells” value [5] was “striking decrease of CDH5” and the “Claudin-5 staining in tissue” value ([5]; G9-PCDH xenograft) was “no visible differences in Claudin-5 staining”. The “ZO-1 expression in tissue” value ([5]; G9-PCDH xenograft) was “mild reductions of ZO-1 expression”, the “trans-endothelial electrical resistance / impedance” value [6] was “significantly decrease trans-endothelial electrical resistance; also recorded: diminishes electrical impedance” and the “in vivo uptake of platinum in healthy mouse brain” value (G9 tumors) was “not in healthy mouse brain”. For the same molecule, the “in vivo uptake of platinum in tumor tissue” value (G9 tumors; measured after 5 hours) was “significantly increases the in vivo uptake of platinum”, the “tumor migration and growth (previously reported)” value (murine GBM models; GBM in vitro and in vivo) was “halted tumor migration and growth in vitro and in vivo” and the “angiogenesis of intra-cranial murine GBM models (previously reported)” value (murine GBM models; mouse, in vivo) was “reduced angiogenesis”.
